The record followed here is patent US9687479B2, “Multisubstituted aromatic compounds as serine protease inhibitors” (VERSEON CORPORATION, priority 2013, dated 2017).

The assay addresses Human thrombin (Homo sapiens (Human), UniProt P00734). Put plainly: Thrombin protease activity inhibition assay (chromogenic substrate S-2238). The format is biochemical. The note with it: 3 nM thrombin, 125 μM S-2238, 10 min pre-incubation, RT. In short, it runs like this:
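Ten-point, three-fold serial dilutions of compound tested against 3 nM enzyme at RT in Tris buffer (0.05 M, pH 7.4) with 0.015 M NaCl and 0.01% PEG-8000.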
Take `Cn1cccc(-c2cc(NCc3ccc(Cl)s3)n(C(=O)C3(C)COC3)n2)c1=O` [Cmpd 148, 3-(5-[(5-chlorothiophen-2-yl)methyl]amino-1-[(3-methyloxetan-3-yl)carbonyl]-1H-pyrazol-3-yl)-1-methyl-1,2-dihydropyridin-2-one]: the IC50 (usually the concentration that gives 50% inhibition) fell in the range of 100 to 1000 nM.

Consider `CC1(C(=O)n2nc(-c3cccn(Cc4ccco4)c3=O)cc2NCc2ccc(Cl)s2)CCOCC1` [Cmpd 150, 3-(5-[(5-chlorothiophen-2-yl)methyl]amino-1-[(4-methyloxan-4-yl)carbonyl]-1H-pyrazol-3-yl)-1-(furan-2-ylmethyl)-1,2-dihydropyridin-2-one], for which the IC50 was below 100 nM.

Compound `CC1(C(=O)n2nc(-c3cccn(Cc4ccoc4)c3=O)cc2NCc2ccc(Cl)s2)CCOCC1` [Cmpd 151, 3-(5-[(5-chlorothiophen-2-yl)methyl]amino-1-[(4-methyloxan-4-yl)carbonyl]-1H-pyrazol-3-yl)-1-(furan-3-ylmethyl)-1,2-dihydropyridin-2-one] gave a half-inhibitory concentration (IC50) below 100 nM.

The compound `CC1(C(=O)n2nc(-c3cccn(Cc4cccnn4)c3=O)cc2NCc2ccc(Cl)s2)CCOCC1` [Cmpd 152, 3-(5-[(5-chlorothiophen-2-yl)methyl]amino-1-[(4-methyloxan-4-yl)carbonyl]-1H-pyrazol-3-yl)-1-(pyridazin-3-ylmethyl)-1,2-dihydropyridin-2-one] yielded an IC50 below 100 nM.

In turn, `CC1(C(=O)n2nc(-c3cccn(Cc4ccccn4)c3=O)cc2NCc2ccc(Cl)s2)CCOCC1` [Cmpd 153, 3-(5-[(5-chlorothiophen-2-yl)methyl]amino-1-[(4-methyloxan-4-yl)carbonyl]-1H-pyrazol-3-yl)-1-(pyridin-2-ylmethyl)-1,2-dihydropyridin-2-one] yielded an IC50 below 100 nM.

The compound `CC1(C(=O)n2nc(-c3cccn(Cc4cccnc4)c3=O)cc2NCc2ccc(Cl)s2)CCOCC1` [Cmpd 154, 3-(5-[(5-chlorothiophen-2-yl)methyl]amino-1-[(4-methyloxan-4-yl)carbonyl]-1H-pyrazol-3-yl)-1-(pyridin-3-ylmethyl)-1,2-dihydropyridin-2-one] registered an IC50 below 100 nM.

Regarding `CC1(C(=O)n2nc(-c3cccn(Cc4ccncc4)c3=O)cc2NCc2ccc(Cl)s2)CCOCC1` [Cmpd 155, 3-(5-[(5-chlorothiophen-2-yl)methyl]amino-1-[(4-methyloxan-4-yl)carbonyl]-1H-pyrazol-3-yl)-1-(pyridin-4-ylmethyl)-1,2-dihydropyridin-2-one], the IC50 is below 100 nM.

For `CC1(C(=O)n2nc(-c3cccn(Cc4ncccn4)c3=O)cc2NCc2ccc(Cl)s2)CCOCC1` [Cmpd 156, 3-(5-[(5-chlorothiophen-2-yl)methyl]amino-1-[(4-methyloxan-4-yl)carbonyl]-1H-pyrazol-3-yl)-1-(pyrimidin-2-ylmethyl)-1,2-dihydropyridin-2-one], the IC50 is below 100 nM.

`CC1(C(=O)n2nc(-c3cccn(Cc4ccsc4)c3=O)cc2NCc2ccc(Cl)s2)CCOCC1` [Cmpd 158, 3-(5-[(5-chlorothiophen-2-yl)methyl]amino-1-[(4-methyloxan-4-yl)carbonyl]-1H-pyrazol-3-yl)-1-(thiophen-3-ylmethyl)-1,2-dihydropyridin-2-one] yielded a half-inhibitory concentration (IC50) below 100 nM.

As for `CC1(C(=O)n2nc(-c3cccn(CCN4CCOCC4)c3=O)cc2NCc2ccc(Cl)s2)CCOCC1` [Cmpd 159, 3-(5-[(5-chlorothiophen-2-yl)methyl]amino-1-[(4-methyloxan-4-yl)carbonyl]-1H-pyrazol-3-yl)-1-[2-(morpholin-4-yl)ethyl]-1,2-dihydropyridin-2-one], the IC50 was above 100000 nM.

Compound `O=C(c1ccco1)n1nc(-c2cccn(Cc3ccco3)c2=O)cc1NCc1ccc(Cl)s1` [Cmpd 161, 3-(5-[(5-chlorothiophen-2-yl)methyl]amino-1-[(furan-2-yl)carbonyl]-1H-pyrazol-3-yl)-1-(furan-2-ylmethyl)-1,2-dihydropyridin-2-one] returned an IC50 below 100 nM.

With `O=C(c1ccco1)n1nc(-c2cccn(Cc3ccoc3)c2=O)cc1NCc1ccc(Cl)s1` [Cmpd 162, 3-(5-[(5-chlorothiophen-2-yl)methyl]amino-1-[(furan-2-yl)carbonyl]-1H-pyrazol-3-yl)-1-(furan-3-ylmethyl)-1,2-dihydropyridin-2-one], the half-inhibitory concentration (IC50) is below 100 nM.

For the compound `O=C(c1ccco1)n1nc(-c2cccn(Cc3cccnn3)c2=O)cc1NCc1ccc(Cl)s1` [Cmpd 163, 3-(5-[(5-chlorothiophen-2-yl)methyl]amino-1-[(furan-2-yl)carbonyl]-1H-pyrazol-3-yl)-1-(pyridazin-3-ylmethyl)-1,2-dihydropyridin-2-one], the IC50 is above 100000 nM.

`O=C(c1ccco1)n1nc(-c2cccn(Cc3ccccn3)c2=O)cc1NCc1ccc(Cl)s1` [Cmpd 164, 3-(5-[(5-chlorothiophen-2-yl)methyl]amino-1-[(furan-2-yl)carbonyl]-1H-pyrazol-3-yl)-1-(pyridin-2-ylmethyl)-1,2-dihydropyridin-2-one] came in with a half-maximal inhibitory concentration (IC50) below 100 nM.

In the case of `O=C(c1ccco1)n1nc(-c2cccn(Cc3cccnc3)c2=O)cc1NCc1ccc(Cl)s1` [Cmpd 165, 3-(5-[(5-chlorothiophen-2-yl)methyl]amino-1-[(furan-2-yl)carbonyl]-1H-pyrazol-3-yl)-1-(pyridin-3-ylmethyl)-1,2-dihydropyridin-2-one], the half-inhibitory concentration (IC50) was below 100 nM.

For `O=C(c1ccco1)n1nc(-c2cccn(Cc3ccncc3)c2=O)cc1NCc1ccc(Cl)s1` [Cmpd 166, 3-(5-[(5-chlorothiophen-2-yl)methyl]amino-1-[(furan-2-yl)carbonyl]-1H-pyrazol-3-yl)-1-(pyridin-4-ylmethyl)-1,2-dihydropyridin-2-one], the 50% inhibitory concentration (IC50) was below 100 nM.

Regarding `O=C(c1ccco1)n1nc(-c2cccn(Cc3ncccn3)c2=O)cc1NCc1ccc(Cl)s1` [Cmpd 167, 3-(5-[(5-chlorothiophen-2-yl)methyl]amino-1-[(furan-2-yl)carbonyl]-1H-pyrazol-3-yl)-1-(pyrimidin-2-ylmethyl)-1,2-dihydropyridin-2-one], the IC50 is below 100 nM.

Compound `O=C(c1ccco1)n1nc(-c2cccn(Cc3cccs3)c2=O)cc1NCc1ccc(Cl)s1` [Cmpd 168, 3-(5-[(5-chlorothiophen-2-yl)methyl]amino-1-[(furan-2-yl)carbonyl]-1H-pyrazol-3-yl)-1-(thiophen-2-ylmethyl)-1,2-dihydropyridin-2-one] showed a 50% inhibitory concentration (IC50) below 100 nM.

Compound `O=C(c1ccco1)n1nc(-c2cccn(Cc3ccsc3)c2=O)cc1NCc1ccc(Cl)s1` [Cmpd 169, 3-(5-[(5-chlorothiophen-2-yl)methyl]amino-1-[(furan-2-yl)carbonyl]-1H-pyrazol-3-yl)-1-(thiophen-3-ylmethyl)-1,2-dihydropyridin-2-one] displayed an IC50 below 100 nM.

The compound `O=C(c1ccco1)n1nc(-c2cccn(CCN3CCOCC3)c2=O)cc1NCc1ccc(Cl)s1` [Cmpd 170, 3-(5-[(5-chlorothiophen-2-yl)methyl]amino-1-[(furan-2-yl)carbonyl]-1H-pyrazol-3-yl)-1-[2-(morpholin-4-yl)ethyl]-1,2-dihydropyridin-2-one] had an IC50 above 100000 nM.

The compound `COCCn1cccc(-c2cc(NCc3ccc(Cl)s3)n(C(=O)c3ccoc3)n2)c1=O` [Cmpd 171, 3-(5-[(5-chlorothiophen-2-yl)methyl]amino-1-[(furan-3-yl)carbonyl]-1H-pyrazol-3-yl)-1-(2-methoxyethyl)-1,2-dihydropyridin-2-one] came in with an IC50 above 100000 nM.

For the compound `O=C(c1ccoc1)n1nc(-c2cccn(CCc3ccccc3)c2=O)cc1NCc1ccc(Cl)s1` [Cmpd 172, 3-(5-[(5-chlorothiophen-2-yl)methyl]amino-1-[(furan-3-yl)carbonyl]-1H-pyrazol-3-yl)-1-(2-phenylethyl)-1,2-dihydropyridin-2-one], the concentration for half-maximal inhibition (IC50) is below 100 nM.

Regarding `O=C(c1ccoc1)n1nc(-c2cccn(Cc3ccoc3)c2=O)cc1NCc1ccc(Cl)s1` [Cmpd 173, 3-(5-[(5-chlorothiophen-2-yl)methyl]amino-1-[(furan-3-yl)carbonyl]-1H-pyrazol-3-yl)-1-(furan-3-ylmethyl)-1,2-dihydropyridin-2-one], the concentration for half-maximal inhibition (IC50) is below 100 nM.

`O=C(c1ccoc1)n1nc(-c2cccn(Cc3cccc4ccccc34)c2=O)cc1NCc1ccc(Cl)s1` [Cmpd 174, 3-(5-[(5-chlorothiophen-2-yl)methyl]amino-1-[(furan-3-yl)carbonyl]-1H-pyrazol-3-yl)-1-(naphthalen-1-ylmethyl)-1,2-dihydropyridin-2-one] displayed an IC50 below 100 nM.

In the case of `O=C(c1ccoc1)n1nc(-c2cccn(Cc3ccc4ccccc4c3)c2=O)cc1NCc1ccc(Cl)s1` [Cmpd 175, 3-(5-[(5-chlorothiophen-2-yl)methyl]amino-1-[(furan-3-yl)carbonyl]-1H-pyrazol-3-yl)-1-(naphthalen-2-ylmethyl)-1,2-dihydropyridin-2-one], the IC50 was below 100 nM.

Compound `O=C(c1ccoc1)n1nc(-c2cccn(Cc3cccnn3)c2=O)cc1NCc1ccc(Cl)s1` [Cmpd 176, 3-(5-[(5-chlorothiophen-2-yl)methyl]amino-1-[(furan-3-yl)carbonyl]-1H-pyrazol-3-yl)-1-(pyridazin-3-ylmethyl)-1,2-dihydropyridin-2-one] displayed an IC50 below 100 nM.

Turning to `O=C(c1ccoc1)n1nc(-c2cccn(Cc3cccnc3)c2=O)cc1NCc1ccc(Cl)s1` [Cmpd 177, 3-(5-[(5-chlorothiophen-2-yl)methyl]amino-1-[(furan-3-yl)carbonyl]-1H-pyrazol-3-yl)-1-(pyridin-3-ylmethyl)-1,2-dihydropyridin-2-one], the 50% inhibitory concentration (IC50) was below 100 nM.

`O=C(c1ccoc1)n1nc(-c2cccn(Cc3ncccn3)c2=O)cc1NCc1ccc(Cl)s1` [Cmpd 178, 3-(5-[(5-chlorothiophen-2-yl)methyl]amino-1-[(furan-3-yl)carbonyl]-1H-pyrazol-3-yl)-1-(pyrimidin-2-ylmethyl)-1,2-dihydropyridin-2-one] returned an IC50 below 100 nM.

Take `O=C(Cn1cccc(-c2cc(NCc3ccc(Cl)s3)n(C(=O)c3ccoc3)n2)c1=O)N1CCOCC1` [Cmpd 180, 3-(5-[(5-chlorothiophen-2-yl)methyl]amino-1-[(furan-3-yl)carbonyl]-1H-pyrazol-3-yl)-1-[2-(morpholin-4-yl)-2-oxoethyl]-1,2-dihydropyridin-2-one]: the half-inhibitory concentration (IC50) is below 100 nM.
